Test systems include SK-OV-3 ovarian; UACC-257 melanoma; RPMI-8226 leukemia; SW-620 colon; KM12 colon; 786-0 renal; A498 renal; OVCAR-5 ovarian; NCI/ADR-RES ovarian; MDA-MB-231 breast.
Common to all, as to test: inhibition of tumour cell growth, NCI panel, 48 h

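Where inhibition never reached the appropriate level, the endpoint shown equals the highest concentration tested. Otherwise, values were interpolated linearly from a five-concentration, 48-hour dose response in 96-well plates. GI50: concentration for 50% inhibition of growth. Definition used: TGI = concentration required for complete inhibition of growth.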

With `NNC(=O)C(=O)N/N=C(\CCC(=O)Nc1ccc(Cl)cc1)Cc1nc2ccccc2s1`, the TGI in the experiment with SK-OV-3 ovarian, in the experiment on UACC-257 melanoma, in the experiment with RPMI-8226 leukemia, with SW-620 colon, in the experiment on KM12 colon and in the experiment with 786-0 renal was above 100 µM in each case. The TGI with A498 renal and in the experiment on OVCAR-5 ovarian was above 100 µM throughout.
On to `CN(C)C(=O)Oc1c(-c2ccccc2)c(=O)n2c3ccccc3n3c(=O)n(C)c(=O)c1c23`, for which the TGI with SK-OV-3 ovarian, in the experiment with UACC-257 melanoma, with RPMI-8226 leukemia, in the experiment with SW-620 colon, with 786-0 renal and with A498 renal was above 100 µM each time. This compound also came in with a TGI in the experiment with OVCAR-5 ovarian above 100 µM.
Consider `C[C@]12CCC(=O)C=C1CC[C@@H]1C2CC[C@]2(C)c3nn(-c4ccccc4)nc3CC12` (stereo partly specified), for which the TGI in the experiment with SK-OV-3 ovarian, with UACC-257 melanoma, in the experiment on RPMI-8226 leukemia, in the experiment with SW-620 colon, with KM12 colon and with 786-0 renal was above 100 µM throughout. Moreover, the TGI in the experiment on A498 renal and in the experiment on OVCAR-5 ovarian was above 100 µM throughout.
Regarding `O=NN(CCCl)C(=O)NC1CCC(CC2CCC(NC(=O)N(CCCl)N=O)CC2)CC1` (stereo unspecified), the TGI with SK-OV-3 ovarian is above 86.4 µM; in the experiment with UACC-257 melanoma, above 100 µM; in the experiment with RPMI-8226 leukemia, above 77.8 µM; with SW-620 colon it was above 51.3 µM; in the experiment on KM12 colon it was above 100 µM; in the experiment with 786-0 renal, 69.9 µM. Further, the TGI with NCI/ADR-RES ovarian was 77.9 µM; in the experiment with A498 renal, 93.9 µM; in the experiment on OVCAR-5 ovarian, above 100 µM.
`CCN(CC)CCNC(=O)c1cccc2nc3ccccc3nc12`: the TGI in the experiment with SK-OV-3 ovarian was above 100 µM; in the experiment on UACC-257 melanoma, 27.7 µM; with RPMI-8226 leukemia, above 100 µM; in the experiment on SW-620 colon it was above 47.1 µM; with KM12 colon it was 45.8 µM; in the experiment with 786-0 renal, above 100 µM. The TGI worked out at 30.9 µM with A498 renal and 41.6 µM in the experiment on OVCAR-5 ovarian.
For the compound `N.N.O=P([O-])([O-])C1(P(=O)([O-])[O-])CCCCCN1.[Pt+2]`, the GI50 with SK-OV-3 ovarian, in the experiment on UACC-257 melanoma, in the experiment on RPMI-8226 leukemia, with SW-620 colon, in the experiment with KM12 colon and in the experiment on 786-0 renal was above 100 µM throughout. Moreover, the GI50 in the experiment on A498 renal is above 100 µM. Further, the TGI with SK-OV-3 ovarian, in the experiment with UACC-257 melanoma, in the experiment on RPMI-8226 leukemia, in the experiment on SW-620 colon, in the experiment on KM12 colon and in the experiment on 786-0 renal was above 100 µM each time. For the same compound, the TGI in the experiment with A498 renal was above 100 µM.
In the case of `CC(=O)[O-].O=C([CH-]C(=O)c1ccccc1)c1ccccc1.O=C([CH-]C(=O)c1ccccc1)c1ccccc1.[Sm+3]`, the GI50 in the experiment on SK-OV-3 ovarian is 6.18 µM; in the experiment with UACC-257 melanoma, 5.66 µM; with RPMI-8226 leukemia, 5.57 µM; with SW-620 colon, 2.71 µM; in the experiment on KM12 colon it was 1.63 µM; with 786-0 renal it was 3.2 µM. Besides, the GI50 in the experiment on A498 renal is 13.1 µM; with OVCAR-5 ovarian it was 21.4 µM. Moreover, the TGI in the experiment with SK-OV-3 ovarian was determined as 37.4 µM; with UACC-257 melanoma it was 24.1 µM; in the experiment with RPMI-8226 leukemia it was 33.8 µM; in the experiment on SW-620 colon, 23.5 µM; with KM12 colon, 21.2 µM; in the experiment on 786-0 renal it was 16.3 µM. Further, the TGI in the experiment with A498 renal was 37.2 µM; with OVCAR-5 ovarian, 63.1 µM.
With `CC(C)=CC(=O)Cc1nc2ccc([N+](=O)[O-])cc2[nH]c1=O`, the TGI with SK-OV-3 ovarian, in the experiment on UACC-257 melanoma, with RPMI-8226 leukemia, in the experiment with SW-620 colon, in the experiment on 786-0 renal and with A498 renal was above 100 µM throughout. Also, the TGI with OVCAR-5 ovarian is above 100 µM.
As to `CC1(C)CC(N(C(=O)/C=C/c2ccc([N+](=O)[O-])o2)C2CCCCC2)CC(C)(C)N1`, the TGI in the experiment on SK-OV-3 ovarian was determined as 43.6 µM; in the experiment on UACC-257 melanoma it was 23.1 µM; with RPMI-8226 leukemia it was 12.9 µM; in the experiment with SW-620 colon, 6.01 µM; in the experiment on KM12 colon it was 22.5 µM; in the experiment with 786-0 renal it was 19.4 µM. The TGI with A498 renal was 30.6 µM; in the experiment with OVCAR-5 ovarian, 38.4 µM.
With `CN(C)CC/C(=N\Nc1ccc(Cl)cc1Cl)c1ccccc1`, the TGI with SK-OV-3 ovarian amounted to 24.8 µM; in the experiment on UACC-257 melanoma, 30.1 µM; in the experiment on RPMI-8226 leukemia it was 17.1 µM; in the experiment with SW-620 colon, 29.5 µM; in the experiment with KM12 colon it was 31.2 µM; in the experiment on 786-0 renal, 27.5 µM. Moreover, the values for the TGI with A498 renal and with OVCAR-5 ovarian were 30.1 µM and 30.7 µM, respectively.
Turning to `O=C(CCC(=O)C1CCC/C1=N/O)Nc1ccc(Cl)cc1` (stereo unspecified), the TGI in the experiment with SK-OV-3 ovarian, with UACC-257 melanoma, in the experiment on RPMI-8226 leukemia, in the experiment with SW-620 colon, in the experiment on KM12 colon and in the experiment with 786-0 renal was above 100 µM in each case. Also, the TGI in the experiment with A498 renal and in the experiment with OVCAR-5 ovarian was above 100 µM throughout.
For `Cc1c(Cl)cccc1NC(=O)c1sc2nc3c(cc2c1N)CCCCC3`, the GI50 in the experiment on SK-OV-3 ovarian was 0.23 µM; with RPMI-8226 leukemia it was 0.434 µM; with SW-620 colon, 0.232 µM; in the experiment on KM12 colon, 0.236 µM; in the experiment on 786-0 renal, 0.207 µM; in the experiment with MDA-MB-231 breast, 0.827 µM. Further, the GI50 is 0.331 µM in the experiment on A498 renal and 1.33 µM in the experiment with OVCAR-5 ovarian. Also, the TGI is 29.9 µM with SK-OV-3 ovarian; above 50 µM in the experiment on RPMI-8226 leukemia; above 50 µM with SW-620 colon; above 50 µM with KM12 colon; 14 µM in the experiment on 786-0 renal; above 50 µM in the experiment with MDA-MB-231 breast. Moreover, the values for the TGI with A498 renal and in the experiment with OVCAR-5 ovarian were 19.3 µM and above 50 µM, respectively.
Consider `Cn1cccc1/C=C/c1cc(Br)c(/C=C/c2cccn2C)cc1Br`, for which the TGI in the experiment on SK-OV-3 ovarian is 30.3 µM; in the experiment on UACC-257 melanoma, above 100 µM; with RPMI-8226 leukemia, 41.3 µM; in the experiment with SW-620 colon, 56.3 µM; in the experiment on KM12 colon, 21.7 µM; with 786-0 renal, 20.2 µM. In addition, the TGI in the experiment with A498 renal was 45.1 µM; in the experiment on OVCAR-5 ovarian it was above 100 µM.
As to `CCc1cccc(C)c1NC(=O)CC1C(=O)Nc2ccccc2S1(=O)=O` (stereo unspecified), the TGI in the experiment with UACC-257 melanoma was 82.7 µM; with RPMI-8226 leukemia, 40.4 µM; in the experiment with SW-620 colon, 29.3 µM; with 786-0 renal it was 31.5 µM; in the experiment on A498 renal, 58.3 µM; in the experiment with OVCAR-5 ovarian, 56.4 µM.

Values taken from PubChem BioAssay (NCI).
